For one experiment, the target named is CYP3A4 (Homo sapiens, UniProt P08684). In words: P450-Glo CYP3A4 luciferin isopropylacetal (Luc-IP) assay.
The target in the next experiment is CYP2D6 (Homo sapiens, UniProt P10635). As to the kind of experiment: P450-Glo CYP2D6 Luc-IP assay.
Another experiment has as its target T1, Recombinant TDO (Homo sapiens, UniProt P48775).
T1 construct: Recombinant TDO (Seegers, N., et al.) and all other assay components were diluted in TDO reaction buffer
As to the kind of experiment: Biochemical assay for TDO (NFK GreenScreen). The settings on record: 50 nM TDO, 200 μM L-tryptophan. The method, then: Biochemical Assay for TDO
The NFK GreenScreen™ assay technology was also used to determine the inhibitory activity of compounds on TDO (Seegers, N., et al., J. Biol. Screen. 19: 1266; 2014). Compounds were serially diluted in DMSO and finally in TDO reaction buffer, consisting of 100 mM NaH2PO4, pH 7.0, supplemented with 0.02% Tween-20 (cat. No. P7949; Sigma Aldrich). Recombinant TDO (Seegers, N., et al.) and all other assay components were diluted in TDO reaction buffer. 10 μl of compound solution and 20 μl of enzyme solution supplemented with 200 μM ascorbic acid were combined in the well of a black 384-well plate (cat. no. 3573; Corning, Corning, N.Y., USA), and incubated for 60 min at room temperature. Subsequently, 10 μl of 0.8 mM of the substrate L-tryptophan was added, i.e., the final concentration of L-tryptophan was 200 μM. The DMSO concentration in the assay was 0.3%. The concentration of TDO was 50 nM. Incubation was continued for 15 min at room temperature. Then, 10 μl of NFK Green™ (NTRC, Oss, The Netherlands) was added, the plate was sealed, and the reaction was developed for 3 hours at 37° C. To determine the production of N-formyl kynurenine (NFK), the seal was removed and fluorescence was read on an EnVision multimode reader (Perkin Elmer, Waltham, Mass., USA). IC50 were calculated using XLfit™ software (ID Business Solutions, Ltd., Surrey, U.K.).

Experiment [1] addresses T2, TDO in SW48 colorectal carcinoma cells (Homo sapiens, UniProt P48775).
T2 construct: Endogenous expression of TDO has been determined in a variety of cancer cell lines; host or cells: SW48 colorectal carcinoma cells
As to the kind of experiment: Cell-based assay for TDO in SW48 colorectal carcinoma cells (NFK GreenScreen). The settings on record: 18 hours with L-tryptophan, read-out: IC50 on TDO in cells. As for the experimental part:
The biological activity of TDO inhibitors can be measured by applying above detection methods to cells that are treated with test compound. Endogenous expression of TDO has been determined in a variety of cancer cell lines (Pilotte et al.; Seegers, et al.), or TDO can be expressed in cells that lack endogenous TDO by transfection of an expression vector containing TDO cDNA. […] A preferred assay is the cell-based NFK GreenScreen™ assay (Seegers et al, supra), which measures the cellular inhibitory activity of compounds on TDO. […] No. V9920). Cell-Based Assay for TDO The NFK GreenScreen™ assay technology was also used to determine the inhibitory activity of compounds on TDO in SW48 colorectal carcinoma cells (Seegers, N., et al., J. Biol. Screen. 19: 1266; 2014). […] Compounds were dissolved in DMSO and diluted in RPMI 1640. Final DMSO concentration in the assay was 0.4% (v/v). Eight thousand cells per well in 40 μl were seeded in a black 384-well tissue plate (cat. No. 781086; […] To determine NFK levels, 12 μl NFK Green™ (NTRC, Oss, The Netherlands) was added to each well, and the plate was sealed and incubated for 4 hours at 37° C. Fluorescence was measured on an EnVision multimode reader (Perkin Elmer, Waltham, Mass., USA).

SMILES strings stand for the structures. Values joined by “and” are separate entries in the source; they are usually repeats but may differ in a detail not shown here. Equal entries are not always repeated.

Chain of CYP3A4 (P08684 whole entry): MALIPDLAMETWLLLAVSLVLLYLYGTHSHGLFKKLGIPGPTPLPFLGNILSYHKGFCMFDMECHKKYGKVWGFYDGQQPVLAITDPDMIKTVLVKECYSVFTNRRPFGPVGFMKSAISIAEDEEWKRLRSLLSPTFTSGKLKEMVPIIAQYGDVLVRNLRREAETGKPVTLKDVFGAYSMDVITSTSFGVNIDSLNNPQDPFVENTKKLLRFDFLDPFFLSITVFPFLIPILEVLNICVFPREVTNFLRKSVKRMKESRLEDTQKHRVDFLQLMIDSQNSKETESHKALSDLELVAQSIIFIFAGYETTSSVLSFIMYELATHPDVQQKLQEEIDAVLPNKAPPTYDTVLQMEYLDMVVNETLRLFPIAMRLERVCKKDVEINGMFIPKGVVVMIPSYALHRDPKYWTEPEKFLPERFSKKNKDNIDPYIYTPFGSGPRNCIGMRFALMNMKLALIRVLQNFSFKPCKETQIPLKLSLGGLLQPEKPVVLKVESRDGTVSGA
T2 sequence (P48775 whole entry): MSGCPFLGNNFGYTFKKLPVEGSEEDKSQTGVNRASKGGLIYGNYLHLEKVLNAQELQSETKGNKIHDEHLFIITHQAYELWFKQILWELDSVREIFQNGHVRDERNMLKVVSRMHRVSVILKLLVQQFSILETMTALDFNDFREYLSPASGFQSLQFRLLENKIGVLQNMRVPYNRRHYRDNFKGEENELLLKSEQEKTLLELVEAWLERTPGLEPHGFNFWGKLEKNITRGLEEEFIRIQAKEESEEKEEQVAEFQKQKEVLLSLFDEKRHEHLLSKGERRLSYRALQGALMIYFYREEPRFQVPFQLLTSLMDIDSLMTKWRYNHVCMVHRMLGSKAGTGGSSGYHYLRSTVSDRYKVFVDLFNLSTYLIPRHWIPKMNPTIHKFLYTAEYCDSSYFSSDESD
T1 sequence (P48775 whole entry): as above
Chain of CYP2D6 (P10635 whole entry): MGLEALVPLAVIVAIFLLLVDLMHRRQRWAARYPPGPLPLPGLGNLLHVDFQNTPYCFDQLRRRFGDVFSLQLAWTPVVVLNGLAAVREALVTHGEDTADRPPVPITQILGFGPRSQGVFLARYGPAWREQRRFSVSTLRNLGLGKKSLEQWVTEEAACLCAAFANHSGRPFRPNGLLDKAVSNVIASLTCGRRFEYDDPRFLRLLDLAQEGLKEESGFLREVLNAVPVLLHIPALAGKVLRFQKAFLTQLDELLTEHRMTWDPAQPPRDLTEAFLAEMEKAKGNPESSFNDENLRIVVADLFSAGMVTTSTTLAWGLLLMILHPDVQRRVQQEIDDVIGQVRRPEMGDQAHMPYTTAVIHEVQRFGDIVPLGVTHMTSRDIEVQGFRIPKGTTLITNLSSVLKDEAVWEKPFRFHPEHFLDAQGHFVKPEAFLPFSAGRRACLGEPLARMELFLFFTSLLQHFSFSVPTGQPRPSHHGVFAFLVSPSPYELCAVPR

For orientation: IC50 means the concentration that gives 50% inhibition. Regarding `CC(O)C(C)NC(=O)c1ccc(-c2c[nH]c3cc(F)ccc23)cc1` (stereo not drawn) [Example 21, 4-(6-Fluoro-1H-indol-3-yl)-N-(2-hydroxy-1-methyl-propyl)benzamide], the IC50 is above 10000 nM against CYP3A4, above 10000 nM at CYP2D6, below 1000 nM on Recombinant TDO and at most 200 nM in experiment [1].

With `CCN(CC)CC(C)NC(=O)c1ccc(-c2c[nH]c3cc(F)ccc23)cc1` (stereo not drawn) [Example 23, N-[2-(diethylamino)-1-methyl-ethyl]-4-(6-fluoro-1H-indol-3-yl)benzamide], the IC50 against CYP3A4 was 5000 to 10000 nM; on CYP2D6, above 10000 nM; on Recombinant TDO it was below 1000 nM; in experiment [1], at most 200 nM.

As for `CN1CCC(NC(=O)c2ccc(-c3c[nH]c4cc(F)ccc34)cc2)CC1` [Example 24, 4-(6-Fluoro-1H-indol-3-yl)-N-(1-methyl-4-piperidyl)benzamide], the concentration for half-maximal inhibition (IC50) was above 10000 nM against CYP3A4, above 10000 nM against CYP2D6, below 1000 nM on Recombinant TDO and at most 200 nM in experiment [1].

On to `CN1CCCC(NC(=O)c2ccc(-c3c[nH]c4cc(F)ccc34)cc2)C1` (stereo not drawn) [Example 25, 4-(6-Fluoro-1H-indol-3-yl)-N-(1-methyl-3-piperidyl)benzamide], for which the IC50 is above 10000 nM at CYP3A4, above 10000 nM against CYP2D6, below 1000 nM at Recombinant TDO and at most 200 nM in experiment [1].

Consider `O=C(NC1COC1)c1ccc(-c2c[nH]c3cc(F)ccc23)cc1` [Example 26, 4-(6-Fluoro-1H-indol-3-yl)-N-(oxetan-3-yl)benzamide], for which the IC50 was above 10000 nM against CYP3A4; above 10000 nM against CYP2D6; below 1000 nM on Recombinant TDO; ≤ 500 nM and 200 to 500 nM in experiment [1].

As for `COCC(=O)Nc1ccc(-c2c[nH]c3cc(F)ccc23)cc1` [Example 27, N-[4-(6-fluoro-1H-indol-3-yl)phenyl]-2-methoxy-acetamide], the IC50 against CYP3A4 is above 10000 nM; on CYP2D6 it was above 10000 nM; at Recombinant TDO, below 1000 nM; in experiment [1], ≤ 500 nM and 200 to 500 nM.

For the compound `CSCC(=O)Nc1ccc(-c2c[nH]c3cc(F)ccc23)cc1` [Example 31, N-[4-(6-fluoro-1H-indol-3-yl)phenyl]-2-methylsulfanyl-acetamide], the half-inhibitory concentration (IC50) is above 10000 nM against CYP3A4; above 10000 nM on CYP2D6; below 1000 nM on Recombinant TDO; ≤ 500 nM and 200 to 500 nM in experiment [1].

Turning to `O=C(N[C@@H]1CCCNC1)c1ccc(-c2c[nH]c3cc(F)ccc23)cc1` [Example 36, 4-(6-Fluoro-1H-indol-3-yl)-N-[(3R)-3-piperidyl]benzamide], the IC50 is above 10000 nM at CYP3A4; above 10000 nM against CYP2D6; below 1000 nM on Recombinant TDO; ≤ 500 nM and 200 to 500 nM in experiment [1].

For `O=C(NC[C@@H]1CCCNC1)c1ccc(-c2c[nH]c3cc(F)ccc23)cc1` [Example 42, 4-(6-Fluoro-1H-indol-3-yl)-N-[[(3R)-3-piperidyl]methyl]benzamide], the 50% inhibitory concentration (IC50) on CYP3A4 is 5000 to 10000 nM; against CYP2D6, above 10000 nM; on Recombinant TDO it was below 1000 nM; in experiment [1] it was ≤ 500 nM and 200 to 500 nM.

On to `CO[C@H]1CNCC[C@H]1NC(=O)c1ccc(-c2c[nH]c3cc(F)ccc23)cc1` [Example 43, 4-(6-Fluoro-1H-indol-3-yl)-N-[(3S,4R)-3-methoxy-4-piperidyl]benzamide], for which the IC50 at CYP3A4 is 5000 to 10000 nM; on CYP2D6 it was above 10000 nM; at Recombinant TDO, below 1000 nM; in experiment [1] it was ≤ 500 nM and 200 to 500 nM.

`O=C(NC1CCOCC1)c1ccc(-c2c[nH]c3cc(F)ccc23)cc1` [Example 44, 4-(6-Fluoro-1H-indol-3-yl)-N-tetrahydropyran-4-yl-benzamide]: the IC50 on CYP3A4 is above 10000 nM; against CYP2D6, above 10000 nM; at Recombinant TDO, below 1000 nM; in experiment [1], ≤ 500 nM and 200 to 500 nM.

Turning to `C[C@H](NC(=O)c1ccc(-c2c[nH]c3cc(F)ccc23)cc1)c1nnc2ccccn12` [Example 45, 4-(6-Fluoro-1H-indol-3-yl)-N-[(1S)-1-([1,2,4]triazolo[4,3-a]pyridin-3-yl)ethyl]benzamide], the IC50 on CYP3A4 is 5000 to 10000 nM; against CYP2D6 it was above 10000 nM; at Recombinant TDO it was 1000 to 5000 nM; in experiment [1], ≤ 500 nM and 200 to 500 nM.

For `O=C(NCCN1CCCCC1)c1ccc(-c2c[nH]c3cc(F)ccc23)cc1` [Example 46, 4-(6-Fluoro-1H-indol-3-yl)-N-[2-(1-piperidyl)ethyl]benzamide], the IC50 at CYP3A4 was 5000 to 10000 nM; on CYP2D6 it was above 10000 nM; at Recombinant TDO, below 1000 nM; in experiment [1], ≤ 500 nM and 200 to 500 nM.

Take `CN1C2CCC1CC(NC(=O)c1ccc(-c3c[nH]c4cc(F)ccc34)cc1)C2` (stereo not drawn) [Example 47, 4-(6-Fluoro-1H-indol-3-yl)-N-(8-methyl-8-azabicyclo[3.2.1]octan-3-yl)benzamide]: the 50% inhibitory concentration (IC50) against CYP3A4 is above 10000 nM; against CYP2D6 it was above 10000 nM; on Recombinant TDO it was below 1000 nM; in experiment [1], ≤ 500 nM and 200 to 500 nM.

Regarding `CC(CO)(CO)NC(=O)c1ccc(-c2c[nH]c3cc(F)ccc23)cc1` [Example 48, 4-(6-Fluoro-1H-indol-3-yl)-N-[2-hydroxy-1-(hydroxymethyl)-1-methyl-ethyl]benzamide], the IC50 was above 10000 nM against CYP3A4; above 10000 nM at CYP2D6; below 1000 nM at Recombinant TDO; ≤ 500 nM and 200 to 500 nM in experiment [1].

As for `CC(C)[C@H](C)NC(=O)c1ccc(-c2c[nH]c3cc(F)ccc23)cc1` [Example 49, N-[(1S)-1,2-dimethylpropyl]-4-(6-fluoro-1H-indol-3-yl)benzamide], the concentration for half-maximal inhibition (IC50) was above 10000 nM against CYP3A4; above 10000 nM at CYP2D6; below 1000 nM on Recombinant TDO; ≤ 500 nM and 200 to 500 nM in experiment [1].

Take `O=C(N[C@@H]1CCCC[C@H]1O)c1ccc(-c2c[nH]c3cc(F)ccc23)cc1` [Example 50, 4-(6-Fluoro-1H-indol-3-yl)-N-[(1R,2R)-2-hydroxycyclohexyl]benzamide]: the 50% inhibitory concentration (IC50) against CYP3A4 is above 10000 nM; against CYP2D6 it was above 10000 nM; at Recombinant TDO, below 1000 nM; in experiment [1] it was ≤ 500 nM and 200 to 500 nM.

`C[C@H](CO)NC(=O)c1ccc(-c2c[nH]c3cc(F)ccc23)cc1Cl` [Example 51, 2-Chloro-4-(6-fluoro-1H-indol-3-yl)-N-[(1R)-2-hydroxy-1-methyl-ethyl]benzamide]: the IC50 on CYP3A4 was above 10000 nM; against CYP2D6 it was above 10000 nM; on Recombinant TDO it was below 1000 nM; in experiment [1], ≤ 500 nM and 200 to 500 nM.

In the case of `CN(C)CCCNC(=O)c1ccc(-c2c[nH]c3cc(F)ccc23)cc1Cl` [Example 52, 2-Chloro-N-[3-(dimethylamino)propyl]-4-(6-fluoro-1H-indol-3-yl)benzamide], the concentration for half-maximal inhibition (IC50) is above 10000 nM at CYP3A4, above 10000 nM against CYP2D6, below 1000 nM at Recombinant TDO and at most 200 nM in experiment [1].

Regarding `O=C(NCC(F)(F)F)c1ccc(-c2c[nH]c3cc(F)ccc23)cc1Cl` [Example 53, 2-Chloro-4-(6-fluoro-1H-indol-3-yl)-N-(2,2,2-trifluoroethyl)benzamide], the IC50 against CYP3A4 is above 10000 nM; on CYP2D6, above 10000 nM; at Recombinant TDO it was below 1000 nM; in experiment [1], ≤ 500 nM and 200 to 500 nM.

Regarding `C[C@@H](CO)NC(=O)c1ccc(-c2c[nH]c3cc(F)ccc23)cc1Cl` [Example 54, 2-Chloro-4-(6-fluoro-1H-indol-3-yl)-N-[(1S)-2-hydroxy-1-methyl-ethyl]benzamide], the IC50 is above 10000 nM against CYP3A4, above 10000 nM on CYP2D6, below 1000 nM at Recombinant TDO and at most 200 nM in experiment [1].

Source of the values: patent US10689343B2, “Inhibitors of tryptophan 2,3-dioxygenase” (NETHERLANDS TRANSLATIONAL RESEARCH CENTER B.V., priority 2016, dated 2020).
